The test system of experiment [1] is PC9 (lung carcinoma) cells, p53R248Q. The class given is cell-based. The following applies: 48 h. The protocol:
(§1) Cells were cultured in 96 wells plates with 2500-4000 cells/well. Serial dilutions of different peptides were added and the plates incubated for additional 48 h at 37° C. Then medium was removed and cell viability was determined by staining the cells with crystal violet (0.05%) in methanol/PBS (1:5, v/v), for 10 min, followed by 3 washes with PBS. 10% acetic acid was added to each well for 10 min. OD was determined at 595 nm.
(§2) The IC50 tables presented in FIGS. 17-20 are from several representative experiments performed on cell lines expressing several p53 hotspot mutations, as well as control non-transformed cells: […]

Experiment [2] has as its system SW-480 (colon carcinoma) cells, p53R273H, P309S. The class given is cell-based. To be noted: 48 h. How it is done: as §1, §2
Experiment [3] deals with WI38 (non-transformed fibroblasts) cells, wtp53. Format: cell-based. To be noted: 48 h. How it is done: as §1, §2
For experiment [4], the system named is RXF-393 (renal carcinoma) cells, p53R175H. Format: cell-based, human. The following applies: for increase in efficacy relative to pCAP-553: FIG. 17, effect of fatty acid length; for IC50: 48 h. How it is done:
as §1
(§3) The IC50 tables presented in FIGS. 17-20 are from several representative experiments performed on cell lines expressing several p53 hotspot mutations, as well as control non-transformed cells:
Fatty acid position. Lead peptides were modified with N-terminal myristic acid to enable the penetration of peptides across the cell membrane. Although myristic acid is usually the default choice for cell permeability, additional options were explored of longer fatty acids and to examine the effect on peptide efficacy in terms of cancer cell killing. A standard crystal violet viability test was performed on human renal carcinoma RXF-393 cells, comparing the original pCAP-553, which has myristic acid (C14), with 4 derivative peptides modified with longer fatty acid chains: palmitic (C16), stearic (C18), […] (C20) and behenic (C22).

Experiment [5] deals with PANC1 (pancreatic carcinoma) cells, p53R273H. Format: cell-based. To be noted: 48 h. How it is done: as §1, §2
The test system of experiment [6] is MIA PaCa-2 (pancreatic carcinoma) cells, p53R248W. Format: cell-based. The following applies: 48 h. The protocol: as §1, §2
Experiment [7] concerns panel of cell lines expressing mutp53. The class given is cell-based. How it is done:
as §1, §3
Proline residue position—Based on alanine scanning and molecular dynamics analyses, it is believed that the proline residue at the 6th position from the N-terminal is critical for the peptide's 3D structure and provides some rigidity required for peptide binding and activity. Therefore, it was hypothesized that a change in orientation or tetrahedral angle might increase the affinity of the peptide for p53. Six new peptides were synthesized replacing this proline residue with proline analogs (pCAPs 708-712, and pCAP-716, SEQ ID NOS: 6-10 and 14, respectively). This set of peptides was tested for activity on a panel of cell lines expressing mutp53, and compared it to pCAP-674 (SEQ ID NO: 27) and to the scrambled sequence peptides pCAP-721 (SEQ ID NO: 19) and pCAP-722 (SEQ ID NO: 20).

Where two headings read alike, the source gives them in different places. Where a SMILES comes first, the peptide text is derived from it. Bridges are numbered along the chain shown (N, C = ends). [ ]: non-standard residue; d: D form. The star is where a group is joined. Docosanoyl = CCCCCCCCCCCCCCCCCCCCCC(=O)*; Oic = O=C(O)[C@@H]1C[C@@H]2CCCC[C@@H]2N1; Arachidoyl = CCCCCCCCCCCCCCCCCCCC(=O)*; Stearoyl = CCCCCCCCCCCCCCCCCC(=O)*; Palmitoyl = CCCCCCCCCCCCCCCC(=O)*; Tic = O=C(O)[C@@H]1Cc2ccccc2CN1; dTic = O=C(O)[C@H]1Cc2ccccc2CN1; Dab = NCC[C@H](N)C(=O)O

Consider `CCCCCCCCCCCCCCCCCC(=O)N[C@@H](CCCNC(=N)N)C(=O)N[C@@H](CCCNC(=N)N)C(=O)N[C@@H](Cc1c[nH]cn1)C(=O)N[C@@H](CO)C(=O)N[C@@H](C(=O)N1CCC[C@H]1C(=O)N[C@@H](CCN)C(=O)N1CCC[C@H]1C(=O)N[C@@H](CC(=O)O)C(N)=O)C(C)C` [pCAP-674, str-RRHSvP(Dab)PD-NH2] (Stearoyl-RRHS[dV]P[Dab]PD-NH2), for which the IC50 in experiment [1] came out at 210 nM; in experiment [2], 600 nM; in experiment [3], 36000 nM. Further, in experiment [4], the “increase in efficacy relative to pCAP-553” value is “four-fold increase in efficacy”.

`CCCCCCCCCCCCCCCCCC(=O)N[C@@H](CCCNC(=N)N)C(=O)N[C@@H](CCCNC(=N)N)C(=O)N[C@@H](Cc1c[nH]cn1)C(=O)N[C@@H](CO)C(=O)N[C@@H](C(=O)N1CCC[C@H]1C(=O)N[C@@H](CCN)C(=O)N1CCC[C@H]1C(=O)N[C@@H](CC(=O)O)C(N)=O)C(C)C` [pCAP-718, str-RRHSvP(Dab)PD-NH2 ion ex] (Stearoyl-RRHS[dV]P[Dab]PD-NH2): the IC50 is 720 nM in experiment [1], 2210 nM in experiment [5], > 40000 nM in experiment [3] and 370 nM in experiment [4].

In the case of `CCCCCCCCCCCCCCCCCC(=O)N[C@@H](CCCNC(=N)N)C(=O)N[C@@H](CCCNC(=N)N)C(=O)N[C@H]1CCCCNC(=O)[C@H](CC(=O)O)NC(=O)[C@@H]2CCCN2C(=O)[C@H](CCN)NC(=O)[C@@H]2CCCN2C(=O)[C@@H](C(C)C)NC(=O)[C@H](CO)NC1=O` [pCAP-714, str-RRKSvP(Dab)PD-Cyc] (Stearoyl-RRKS[dV]P[Dab]PD; lactam 3-C), the concentration for half-maximal inhibition (IC50) in experiment [1] was 800 nM; in experiment [2], 1090 nM; in experiment [3], > 40000 nM; in experiment [4] it was 570 nM.

Turning to `CCCCCCCCCCCCCCCCCC(=O)N[C@@H](CCCNC(=N)N)C(=O)N[C@@H](CCCNC(=N)N)C(=O)N[C@@H](Cc1c[nH]cn1)C(=O)N[C@@H](CO)C(=O)N[C@H](CCCCN)C(=O)N1Cc2ccccc2C[C@@H]1C(=O)N[C@@H](CCN)C(=O)N1CCC[C@H]1C(=O)N[C@@H](CC(=O)O)C(N)=O` [pCAP-719, str-RRHSk(tic)(Dab)PD-NH2] (Stearoyl-RRHS[dK][dTic][Dab]PD-NH2), the IC50 in experiment [1] came out at 570 nM; in experiment [5], 2180 nM; in experiment [3] it was 29000 nM; in experiment [4], 460 nM.

In the case of `CCCCCCCCCCCCCCCCCCCCCC(=O)N[C@@H](CCCNC(=N)N)C(=O)N[C@@H](CCCNC(=N)N)C(=O)N[C@@H](Cc1c[nH]cn1)C(=O)N[C@@H](CO)C(=O)N[C@@H](C(=O)N1CCC[C@H]1C(=O)N[C@@H](CCN)C(=O)N1CCC[C@H]1C(=O)N[C@@H](CC(=O)O)C(N)=O)C(C)C` [pCAP-707, Beh-RRHSvP(Dab)PD-NH2] (Docosanoyl-RRHS[dV]P[Dab]PD-NH2), the IC50 amounted to 1500 nM in experiment [1], 3000 nM in experiment [2], 12000 nM in experiment [3] and 1500 nM in experiment [4].

With `CCCCCCCCCCCCCCCCCCCC(=O)N[C@@H](CCCNC(=N)N)C(=O)N[C@@H](CCCNC(=N)N)C(=O)N[C@@H](Cc1c[nH]cn1)C(=O)N[C@@H](CO)C(=O)N[C@@H](C(=O)N1CCC[C@H]1C(=O)N[C@@H](CCN)C(=O)N1CCC[C@H]1C(=O)N[C@@H](CC(=O)O)C(N)=O)C(C)C` [pCAP-706, arc-RRHSvP(Dab)PD-NH2] (Arachidoyl-RRHS[dV]P[Dab]PD-NH2), the IC50 amounted to 260 nM in experiment [1], 800 nM in experiment [2], 15000 nM in experiment [3] and 400 nM in experiment [4].

Consider `CCCCCCCCCCCCCCCCCC(=O)N[C@@H](CCCNC(=N)N)C(=O)N[C@@H](CCCNC(=N)N)C(=O)N[C@@H](Cc1c[nH]cn1)C(=O)N[C@@H](CO)C(=O)N[C@@H](C(=O)N1[C@H](C(=O)N[C@@H](CCN)C(=O)N2CCC[C@H]2C(=O)N[C@@H](CC(=O)O)C(N)=O)C[C@@H]2CCCC[C@@H]21)C(C)C` [pCAP-711, str-RRHSv(Oic)(Dab)PD] (Stearoyl-RRHS[dV][Oic][Dab]PD-NH2; N-terminus and C-terminus assumed), for which the IC50 is 1600 nM in experiment [1], 3000 nM in experiment [2], > 40000 nM in experiment [3] and 2600 nM in experiment [4].

`CCCCCCCCCCCCCCCCCC(=O)N[C@@H](CCCNC(=N)N)C(=O)N[C@@H](CC(=O)O)C(=O)N1CCC[C@H]1C(=O)N[C@@H](Cc1c[nH]cn1)C(=O)N[C@@H](C(=O)N[C@@H](CO)C(=O)N1CCC[C@H]1C(=O)N[C@@H](CCCNC(=N)N)C(=O)N[C@@H](CCN)C(N)=O)C(C)C` [pCAP-723, str-RDPHvSPR(Dab)-NH2, reference compound] (Stearoyl-RDPH[dV]SPR[Dab]-NH2): the concentration for half-maximal inhibition (IC50) in experiment [1], in experiment [5], in experiment [3] and in experiment [4] was > 40000 nM throughout.

Consider “pam-RRHSvP(Dab)PD-NH2 (Palmitoyl-RRHS[dV]P[Dab]PD-NH2) [pCAP-673, pam—Palmitic]”, for which the “increase in efficacy relative to pCAP-553” value in experiment [4] was “two-fold increase in efficacy”.

As for `CCCCCCCCCCCCCCCCCC(=O)N[C@@H](CCCNC(=N)N)C(=O)N[C@@H](CCCNC(=N)N)C(=O)N[C@@H](Cc1c[nH]cn1)C(=O)N[C@@H](CO)C(=O)N[C@@H](C(=O)N1CCC[C@@H]1C(=O)N[C@@H](CCN)C(=O)N1CCC[C@H]1C(=O)N[C@H](CC(=O)O)C(=O)NCC(=O)N[C@@H](CCCNC(=N)N)C(=O)O)C(C)C` [pCAP-721, str-RRHSvp(Dab)PdGR] (Stearoyl-RRHS[dV][dP][Dab]P[dD]GR-OH; C-terminus assumed), the IC50 in experiment [6] was 300 nM; in experiment [1] it was 800 nM; in experiment [2] it was 1200 nM; in experiment [4], 300 nM. In addition, in experiment [7], the “activity in viability assays compared with other peptides (in words)” value is given as “comparable activity to pCAP-717”.

Regarding `CCCCCCCCCCCCCCCCCC(=O)N[C@@H](CCCNC(=N)N)C(=O)N[C@@H](CCCNC(=N)N)C(=O)N[C@@H](Cc1c[nH]cn1)C(=O)N[C@@H](CO)C(=O)N[C@@H](C(=O)N1CCC[C@@H]1C(=O)N[C@@H](CCN)C(=O)N1CCC[C@H]1C(=O)N[C@@H](CC(=O)O)C(N)=O)C(C)C` [pCAP-708, str-RRHSvp(Dab)PD-NH2] (Stearoyl-RRHS[dV][dP][Dab]PD-NH2), the IC50 is 500 nM in experiment [6], 32000 nM in experiment [3] and 120 to 1300 nM in experiment [7] (48 h). For the same molecule, the “activity in viability assays compared with other peptides (in words)” value in experiment [7] is given as “consistently modestly improved activity over pCAP-674”; in experiment [7] (listed as 708), “highest activity”.

In the case of `CCCCCCCCCCCCCC(=O)N[C@@H](CCCNC(=N)N)C(=O)N[C@@H](CCCNC(=N)N)C(=O)N[C@@H](Cc1c[nH]cn1)C(=O)N[C@@H](CO)C(=O)N[C@H](C(=O)N1CCC[C@H]1C(=O)N[C@@H](Cc1c[nH]cn1)C(=O)N1CCC[C@H]1C(=O)N[C@@H](CC(=O)O)C(=O)O)[C@@H](C)O` [pCAP-250, myr-RRHSTPHPD], the IC50 in experiment [6] is 1000 nM; in experiment [3], > 40000 nM.

Regarding `CCCCCCCCCCCCCCCCCC(=O)N[C@@H](CCCNC(=N)N)C(=O)N[C@@H](CCCNC(=N)N)C(=O)N[C@H]1CCCCNC(=O)[C@H](CC(=O)O)NC(=O)[C@@H]2CCCN2C(=O)[C@H](CCN)NC(=O)[C@@H]2CCCN2C(=O)[C@@H](C(C)C)NC(=O)[C@H](CO)NC(=O)[C@H](Cc2c[nH]cn2)NC1=O` [pCAP-715, str-RRKHSvP(Dab)PD-Cyc] (Stearoyl-RRKHS[dV]P[Dab]PD; lactam 3-C), the 50% inhibitory concentration (IC50) in experiment [1] was 250 nM; in experiment [2], 540 nM; in experiment [3], > 40000 nM; in experiment [4] it was 480 nM.

In the case of `CCCCCCCCCCCCCCCCCC(=O)N[C@@H](CCCNC(=N)N)C(=O)N[C@@H](CCCNC(=N)N)C(=O)N[C@@H](Cc1c[nH]cn1)C(=O)N[C@@H](CO)C(=O)N[C@@H](C(=O)N1Cc2ccccc2C[C@H]1C(=O)N[C@@H](CCN)C(=O)N1CCC[C@H]1C(=O)N[C@@H](CC(=O)O)C(N)=O)C(C)C` [pCAP-712, str-RRHSv(Tic)(Dab)PD-NH2] (Stearoyl-RRHS[dV][Tic][Dab]PD-NH2), the IC50 in experiment [6] was found to be 1000 nM; in experiment [1], 1200 nM; in experiment [2], 1500 nM; in experiment [4], 600 nM. Further, the “activity in viability assays compared with other peptides (in words)” value in experiment [7] is “highest activity”.

(Values after US20230127559A1, “PEPTIDE ANALOGS AND USE OF SAME IN TREATING DISEASES, DISORDERS OR CONDITIONS ASSOCIATED WITH MUTANT P53 PROTEIN” (YEDA RESEARCH AND DEVELOPMENT CO. LTD., priority 2020, published 2023).)
